Test [1] deals with T1, DatZ (S-2L HD phosphohydrolase) (Cyanophage S-2L, UniProt A0A7U3TCA2).
T1 construct: full length 175 aa, synthetic codon-optimised gene, N-terminal 14-His tag removed by TEV, E. coli host, hexamer (D3)
The experiment in a line: X-ray crystal structure; hydrolysis to dA seen by HPLC. Type of test: binding. As to conditions: crystals grown with 10 mM EDTA, pH 7; active site; partially occupied Zn2+ in site A; HPLC assay: 20 mM Tris pH 7, 5 mM MgCl2, 37 °C.

Test [2] has as its target S-2L DatZ (dATP triphosphohydrolase, HD-domain phosphohydrolase of cyanophage S-2L) (cyanophage S-2L). The experiment in a line: AUC + other: DLS; in vitro; stoichiometry worked out assuming a perfectly globular shape; conditions not given.

For `Nc1ncnc2c1ncn2[C@H]1C[C@H](O)[C@@H](COP(=O)(O)OP(=O)(O)OP(=O)(O)O)O1` [dATP], in test [1], the “X-ray crystal structure; hydrolysis to dA seen by HPLC” value is reported as “we solved a third structure of DatZ, this time with bound dATP (PDB ID: 6ZPC”. For “S-2L DatZ (dATP triphosphohydrolase, HD-domain phosphohydrolase of cyanophage S-2L) (enzyme)”, the stoichiometry N (protomers per oligomer) in test [2] was determined as 5.9.
